Results as given in patent US10011573B2, “Human androgen receptor DNA-binding domain (DBD) compounds as therapeutics and methods for their use” (The University of British Columbia, priority 2014, dated 2018).
Entries after “also recorded” stand apart in the source; their conditions may differ.

Assays:
LNCaP xenograft = experiment: Castration-resistant LNCaP xenografts in mice; details: 100 mg/kg i.p. twice daily, 4 weeks
Stability in media = type: physicochemical
[1] = target: T1, AR binding to PSA and FKBP5 enhancer (Homo sapiens, UniProt P10275, T878A); experiment: Chromatin immunoprecipitation (ChIP) in LNCaP cells; type: cell-based; details: R1881, 24 h
T1 construct: endogenous in cells; host or cells: LNCaP (LN-ARR2PB-eGFP reporter line for A1; parental LNCaP for ChIP)
T1 sequence (P10275 whole entry T878A): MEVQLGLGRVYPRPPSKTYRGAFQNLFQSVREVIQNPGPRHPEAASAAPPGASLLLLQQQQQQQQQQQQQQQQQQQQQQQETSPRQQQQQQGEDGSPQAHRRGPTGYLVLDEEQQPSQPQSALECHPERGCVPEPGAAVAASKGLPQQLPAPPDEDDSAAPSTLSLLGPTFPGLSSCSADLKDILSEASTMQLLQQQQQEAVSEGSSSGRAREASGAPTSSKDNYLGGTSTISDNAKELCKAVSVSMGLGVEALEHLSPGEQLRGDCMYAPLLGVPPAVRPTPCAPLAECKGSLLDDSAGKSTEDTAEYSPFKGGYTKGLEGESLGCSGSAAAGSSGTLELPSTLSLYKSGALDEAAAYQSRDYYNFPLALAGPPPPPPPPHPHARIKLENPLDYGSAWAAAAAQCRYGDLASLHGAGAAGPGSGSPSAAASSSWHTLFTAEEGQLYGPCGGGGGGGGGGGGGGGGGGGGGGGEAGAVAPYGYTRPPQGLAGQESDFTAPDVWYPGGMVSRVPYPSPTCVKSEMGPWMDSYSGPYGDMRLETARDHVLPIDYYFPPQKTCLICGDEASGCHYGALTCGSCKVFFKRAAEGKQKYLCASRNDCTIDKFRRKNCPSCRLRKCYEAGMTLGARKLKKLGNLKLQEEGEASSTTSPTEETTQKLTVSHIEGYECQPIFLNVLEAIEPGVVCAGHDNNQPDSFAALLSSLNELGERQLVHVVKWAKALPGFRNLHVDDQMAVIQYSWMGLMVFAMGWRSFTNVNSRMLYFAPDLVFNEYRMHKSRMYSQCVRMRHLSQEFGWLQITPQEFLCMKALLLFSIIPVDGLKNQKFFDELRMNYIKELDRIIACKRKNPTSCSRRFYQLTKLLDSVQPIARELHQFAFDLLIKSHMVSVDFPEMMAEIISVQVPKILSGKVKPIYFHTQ

AR target genes = experiment: Microarray genetic profile in LNCaP cells
AR AF2 site = AR AF2 site (Homo sapiens, UniProt P10275); experiment: SRC2-3 peptide displacement assay (fluorescence polarization); type: binding
AR AF2 site, sequence (P10275 664-920 limits assumed): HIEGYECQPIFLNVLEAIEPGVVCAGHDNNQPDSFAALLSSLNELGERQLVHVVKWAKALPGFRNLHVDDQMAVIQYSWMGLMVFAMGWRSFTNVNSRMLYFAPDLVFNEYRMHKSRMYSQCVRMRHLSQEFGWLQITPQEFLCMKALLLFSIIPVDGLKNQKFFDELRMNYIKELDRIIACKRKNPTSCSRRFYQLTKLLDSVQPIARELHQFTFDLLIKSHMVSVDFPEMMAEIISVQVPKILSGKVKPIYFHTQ
Experimental: 6. SRC2-3 peptide displacement assay: The AR AF2 specific peptide displacement was assayed as previously described.

AR AF1 = experiment: AF1 assay (CREB and Gal4 plasmid in PC3 cells); type: cell-based
Excerpt: As there are other known binding sites in AR including the hormone binding site (HBS), activation function-2 (AF2) site, binding function 3 (BF3) and N-terminal activation function-1 (AF1) site, we utilized other assays to rule out possible binding to those sites. […] Then we used an AF1 assay to measure whether the potency of this compound comes from the inhibition of AF1 transactivation.

[2] = test system: MDV3100-resistant LNCaP cells (MR49F); experiment: Cell viability (MTS) assay, MDV3100 (Enzalutamide)-resistant cells; type: cell-based, human; details: 0.1 nM R1881
Experimental: 1. Cell Culture: LNCaP and PC3 human prostate cancer cells were obtained from American Type Culture Collection (ATCC, Manassas, Va.) and grown in RPMI 1640 medium supplemented with 5% fetal bovine serum (FBS) (Invitrogen). […]. All cells were maintained at 37° C. in 5% CO2.
7. Cell viability assay: The PC3, LNCaP, and MDV3100-resistant cells were plated at 3,000 cells per well in RPMI 1640 containing 5% charcoal stripped serum (CSS) in a 96-well plate, treated with 0.1 nM R1881 and compounds (0-25 μM) for 96 hrs.

[3] = target: T2, AR hormone binding site (recombinant wild type LBD) (Rattus norvegicus, UniProt P15207); experiment: Androgen displacement assay (Polar Screen Androgen Receptor Competitor Green Assay Kit)
T2 construct: displace DHT from the ABS site of recombinant wild type LBD
T2 sequence (P15207 651-882 limits assumed): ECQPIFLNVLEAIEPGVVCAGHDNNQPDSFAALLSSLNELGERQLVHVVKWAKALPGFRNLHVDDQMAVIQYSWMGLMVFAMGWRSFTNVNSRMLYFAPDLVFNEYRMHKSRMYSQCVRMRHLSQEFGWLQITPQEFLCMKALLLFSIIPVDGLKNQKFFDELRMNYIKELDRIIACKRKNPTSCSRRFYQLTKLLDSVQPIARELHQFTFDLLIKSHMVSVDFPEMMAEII
Experimental: 5. Androgen displacement assay: The androgen displacement was assessed with the Polar Screen Androgen Receptor Competitor Green Assay Kit as per the instructions of the manufacturer (Lack, Axerio-Cilies et al. 2011).
The ability of the above chemicals to displace DHT from the ABS site of recombinant wild type LBD was measured using a fluorescent polarization assay (PolarScreen™, Life Technologies) at various concentrations.

[4] = target: AR ligand binding domain (LBD) (Homo sapiens, UniProt P10275); experiment: Biolayer interferometry (BLI) assay, small molecule binding to AR
Experimental: 4. Biolayer interferometry (BLI) assay: The direct reversible interaction between small molecules and the AR was measured as previously described (Lack, Axerio-Cilies et al. 2011).

SMILES | toxic effect on animals (LNCaP xenograft) | LNCaP xenograft tumor volume (LNCaP xenograft; castrated mice, 100 mg/kg) | serum PSA (LNCaP xenograft; castrated mice, 100 mg/kg) | stability in media (Stability in media) | AR pulldown of the PSA and FKBP5 enhancer [1] | change of expression of genotoxin-responsive genes (AR target genes; 31 genes) | FKBP5 gene expression fold change vs R1881 treatment only (AR target genes; 14449 400 nM + 1 nM R1881, 24 h, p 0.08) | ATF3 gene expression fold change (AR target genes; 14449 400 nM + R1881) | CASP1 gene expression fold change (AR target genes; 14449 400 nM + R1881) | XPC gene expression fold change (AR target genes; 14449 400 nM + R1881) | displacement of peptide in the AF2 binding site (AR AF2 site) | inhibition of CREB and Gal4 (AF1) (AR AF1) | inhibition of cell growth, MDV3100/Enzalutamide-resistant cells [2] | androgen displacement from AR HBS [3] | binding in the C-terminal LBD (BLI) [4]
Brc1ncn(-c2csc(N3CCOCC3)n2)c1Br [Compound 14449] | no observable toxic effect | reduces tumor volume; also recorded: inhibited to levels comparable with enzalutamide treatment | abolishes PSA production; also recorded: inhibited to levels comparable with enzalutamide treatment | fully stable in media | reduced AR pulldown | None of the genotoxin-responsive genes showed any significant change | 0.81 | 0.99 | 1.00 | 1.03 |  |  |  |  | 
c1ccc(-c2csc(N3CCOCC3)n2)cc1 [Compound 14228, 4-(4-phenylthiazol-2-yl)morpholine] |  |  |  |  |  |  |  |  |  |  | Neither does it displace the peptide | no inhibition | strongly inhibits | does not displace androgen | no binding
